From patent US4141988A, “2,9-Dioxatricyclo[4,3,1,0^3,7 ]decane derivatives, processes for their preparation and pharmaceutical compositions thereof” (Kali-Chemie Pharma GmbH, priority 1977, dated 1979)

Tests used:
[1] = test system: bradykinin induced pain; assay: bradykinin induced pain test in rats (s.c.); type: in vivo, rat
Description: For example, the MED of both, the test substance 32-527 and morphine, is 0,56 mg/kg in the so-called step-irritation test in the rhesus monkey upon s.c. administration. Upon s.c. administration, the ED50 of the two substances for inhibiting the bradykinin induced pain in rats are as follows: […]

[2] = inhibition of intestinal motility in mice; conditions: mouse, in vivo, po, read-out: intestinal motility inhibiting ED50
[3] = test system: rhesus monkey; assay: step-irritation test in the rhesus monkey; type: in vivo
[4] = test system: rhesus monkey; assay: self-administration test (addiction) in the rhesus monkey; type: in vivo; conditions: contrary to morphine
Description: test substance No. 32-527 < 5,6 mg/kg and morphine 3,6 mg/kg.

[5] = test system: mice, rats and rhesus monkeys; assay: analgesic activity in mice, rats and rhesus monkeys; type: in vivo
[6] = acute toxicity; type: in vivo; conditions: compared with propoxyphene or profadol

SMILES | ED50 for inhibiting the bradykinin induced pain [1] | ED50 [2] [mg/kg] | minimal effective dose ([3]; Macaca mulatta, sc, read-out: MED) [mg/kg] | addiction syndroms in the self-administration test [4] | analgesic activity compared with morphine ([5]; enteral and parenteral) | analgesic activity ([5]; enteral and parenteral administration) | acute toxicity [6] | MED ([3]; step-irritation test, rhesus monkey, s.c.)
CN1CC[C@]23c4c5ccc(O)c4O[C@H]2[C@@H](O)C=C[C@H]3[C@H]1C5 [morphine, reference compound] | 3,6 mg/kg | 39 | 0.56 |  |  |  |  | 
COC1OC2OC3(C)C(NCCc4ccccc4Cl)CC(C2C)C13.Cl (stereo not drawn) [test substance No. 32-527, 4 α-(o-chlorophenethylamino)-3,10-dimethyl-8-methoxy-2,9-dioxatricyclo[4,3,1,0^3,7]decane hydrochloride] | < 5,6 mg/kg |  |  | practically no addiction syndroms are observed | of about the same order as that of morphine | exhibits analgesic activities | similarly low toxicity as that of propoxyphene or profadol | 0,56 mg/kg
